Measured values reported in ChEMBL document CHEMBL5726175, “sGC stimulators” (2019).

Experiment: sGC-HEK-cGMP Assay: Human embryonic kidney cells (HEK293), endogenously expressing soluble guanylate cyclase (sGC), were used to evaluate the activity of test compounds. Compounds stimulating the sGC enzyme should cause an increase in the intracellular concentration of cGMP. HEK 293 cells were seeded in Dulbecco's Modification of Eagle's Medium supplemented with fetal bovine serum (10% final) and penicillin (100 U/mL)/streptomycin (100 μg/mL) in a 50 μL volume at a density of 1.5×10^4 cells/well in a poly-D-lysine coated 384 well flat bottom plate. Cells were incubated overnight at 37° C. in a humidified chamber with 5% CO2. Medium was aspirated and cells were washed with 1× Hank's Buffered Saline Salt Solution (50 μL). Cells were then incubated for 15 minutes at 37° C. with 50 μL of a 0.5 mM 3-isobutyl-1-methylxanthine (IBMX) solution. Test article and Diethylenetriamine NONOate (DETA-NONOate) solutions (x μM concentration for test article solution and 10 μM concentration for DETA-NONOate solution; wherein x is one of the following concentrations: 0.029 nM to 30000 nM). were then added to the assay mixture and the resulting mixture incubated at 37° C. for 20 minutes. After the 20 minute incubation, the assay mixture was aspirated and 10% acetic acid containing 150 ng/mL+3-cGMP (internal standard for LCMS) (50 μL) was added to the cells. The plate was incubated at 4° C. for 30 minutes in the acetic acid solution to stop the reaction and lyse the cells. The plates were then centrifuged at 1,000 g for 3 minutes at 4° C. and the supernatant transferred to a clean reaction plate for LCMS analysis.cGMP concentrations were determined from each sample using the LCMS conditions below (Table 5) and calculated standard curve. The standard curve was prepared in 10% acetic acid with 150 ng/mL+3cGMP (isotopically labelled cGMP with a weight 3 units higher than wild type) with the following final concentrations of cGMP in ng/mL: 1, 5, 10, 50, 100, 250, 500, 1000, 2000.
Type: cell-based

With `O=CO[C@H](Cc1ccc(O)cc1)Nc1nc(-c2cc(-c3ccon3)n(Cc3ccccc3F)n2)ncc1F` as the compound, how does the EC50 read?
Its EC50 is > 1000 nM.

Which EC50 does the source give for `O=COC1CNCCN1c1nc(-c2cc(-c3ccon3)n(Cc3ccccc3F)n2)ncc1F` (centres undefined) here?
Its EC50 is > 1000 nM.

With `Fc1ccccc1Cn1nc(-c2ncc(F)c(N3CCCC4CC43)n2)cc1-c1ccon1` (centres undefined) as the compound, how does the EC50 read?
The EC50 was “in the range around 550 nM”.

Which EC50 does the source give for `O=COC1c2[nH]cnc2CCN1c1nc(-c2cc(-c3ccon3)n(Cc3ccccc3F)n2)ncc1F` (centres undefined) here?
The EC50 was > 1000 nM.

With `COc1ccc2c(c1)CCN(c1nc(-c3cc(-c4ccon4)n(Cc4ccccc4F)n3)ncc1F)C2OC=O` (centres undefined) as the compound, how does the EC50 read?
The EC50 was < 100 nM.

Which EC50 does the source give for `COC(=O)N1CCN(c2nc(-c3cc(-c4ccon4)n(Cc4ccccc4F)n3)ncc2F)C(OC=O)C1` (centres undefined) here?
Its EC50 is > 1000 nM.

For `C[C@H]1CCCN(c2nc(-c3cc(-c4ccon4)n(Cc4cccc(F)c4F)n3)ncc2F)[C@H]1OC=O`, which EC50 is on record?
The EC50 was < 100 nM.

For `CC(=O)c1cc(-c2ncc(F)c(N3CCC[C@H](C)[C@@H]3OC=O)n2)nn1Cc1ccccc1F`, which EC50 is on record?
Its EC50 is “in the range around 550 nM”.

Which EC50 does the source give for `O=COC1c2ccc(O)cc2CCN1c1nc(-c2cc(-c3ccon3)n(Cc3ccccc3F)n2)ncc1F` (centres undefined) here?
Its EC50 is > 1000 nM.
